Results published in ChEMBL document CHEMBL5465560, “Selectivity Literature for EUbOPEN Chemogenomic Library” (2024).

Assays:
[1] = target: T1, 3-phosphoinositide-dependent protein kinase 1 (Homo sapiens) (UniProt O15530); details: at 10 µM
T1 sequence (whole entry): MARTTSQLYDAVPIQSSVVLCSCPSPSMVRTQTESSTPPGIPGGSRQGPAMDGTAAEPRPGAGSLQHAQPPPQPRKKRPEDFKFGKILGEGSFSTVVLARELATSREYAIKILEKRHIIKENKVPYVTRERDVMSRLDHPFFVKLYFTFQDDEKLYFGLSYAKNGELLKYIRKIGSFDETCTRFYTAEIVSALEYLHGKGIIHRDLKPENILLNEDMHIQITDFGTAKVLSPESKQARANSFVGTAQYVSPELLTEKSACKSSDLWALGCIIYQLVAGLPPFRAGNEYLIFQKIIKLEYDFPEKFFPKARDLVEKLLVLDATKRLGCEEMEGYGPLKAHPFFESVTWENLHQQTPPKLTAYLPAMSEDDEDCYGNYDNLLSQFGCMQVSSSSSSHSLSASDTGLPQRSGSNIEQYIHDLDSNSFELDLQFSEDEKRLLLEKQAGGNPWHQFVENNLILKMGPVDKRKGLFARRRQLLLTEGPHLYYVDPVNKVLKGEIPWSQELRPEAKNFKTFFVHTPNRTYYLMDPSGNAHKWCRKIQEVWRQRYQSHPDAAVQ

[2] = target: T2, Non-receptor tyrosine-protein kinase TNK1 (Homo sapiens) (UniProt Q13470); assay: Selectivity interaction (KinomeScan (DiscoverX)) EUB0000092b TNK1; details: at 10 µM
T2 sequence (whole entry): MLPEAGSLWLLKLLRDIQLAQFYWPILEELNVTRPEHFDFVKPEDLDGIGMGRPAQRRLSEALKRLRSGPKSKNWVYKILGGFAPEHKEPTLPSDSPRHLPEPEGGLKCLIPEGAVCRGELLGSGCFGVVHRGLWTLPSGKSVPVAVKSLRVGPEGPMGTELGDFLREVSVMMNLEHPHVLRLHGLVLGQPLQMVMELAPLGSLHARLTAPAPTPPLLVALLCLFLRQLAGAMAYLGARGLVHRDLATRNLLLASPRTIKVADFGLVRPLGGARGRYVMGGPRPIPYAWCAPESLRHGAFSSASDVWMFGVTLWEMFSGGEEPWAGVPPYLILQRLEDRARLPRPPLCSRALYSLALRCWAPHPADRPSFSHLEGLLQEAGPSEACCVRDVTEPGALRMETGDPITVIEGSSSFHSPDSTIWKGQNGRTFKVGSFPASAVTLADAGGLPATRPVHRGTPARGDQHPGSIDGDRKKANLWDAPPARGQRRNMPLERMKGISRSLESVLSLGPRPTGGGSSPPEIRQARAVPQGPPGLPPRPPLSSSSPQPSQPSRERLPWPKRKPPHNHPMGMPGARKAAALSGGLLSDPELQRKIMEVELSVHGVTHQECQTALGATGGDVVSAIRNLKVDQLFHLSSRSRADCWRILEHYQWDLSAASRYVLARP

[3] = target: T3, Serine/threonine-protein kinase DCLK1 (Homo sapiens) (UniProt O15075); assay: Selectivity interaction (Ambit KINOMEscan and KiNATiv profiling in Jurkat cells) EUB0000090b DCLK1; assay type: cell-based; details: at 1 µM
T3 sequence (whole entry): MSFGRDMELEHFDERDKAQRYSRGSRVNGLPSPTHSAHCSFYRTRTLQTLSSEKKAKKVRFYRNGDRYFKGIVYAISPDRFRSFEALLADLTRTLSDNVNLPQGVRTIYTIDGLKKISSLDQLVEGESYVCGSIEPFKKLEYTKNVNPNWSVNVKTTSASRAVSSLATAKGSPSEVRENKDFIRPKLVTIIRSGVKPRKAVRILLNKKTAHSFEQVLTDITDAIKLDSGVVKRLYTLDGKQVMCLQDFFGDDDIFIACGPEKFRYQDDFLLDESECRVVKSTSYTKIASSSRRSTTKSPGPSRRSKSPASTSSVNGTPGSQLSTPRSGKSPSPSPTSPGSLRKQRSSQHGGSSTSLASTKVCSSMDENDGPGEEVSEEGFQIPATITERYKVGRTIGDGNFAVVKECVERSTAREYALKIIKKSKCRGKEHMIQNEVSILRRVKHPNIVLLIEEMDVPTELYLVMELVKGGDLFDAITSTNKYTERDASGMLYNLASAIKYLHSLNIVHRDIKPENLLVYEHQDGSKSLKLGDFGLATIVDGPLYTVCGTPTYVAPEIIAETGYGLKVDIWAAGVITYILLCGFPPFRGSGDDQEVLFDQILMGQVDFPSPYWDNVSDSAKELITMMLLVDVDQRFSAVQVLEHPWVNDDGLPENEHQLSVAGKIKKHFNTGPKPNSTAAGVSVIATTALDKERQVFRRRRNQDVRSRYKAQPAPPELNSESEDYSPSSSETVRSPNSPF

[4] = target: Angiopoietin-1 receptor (Homo sapiens) (UniProt Q02763); assay: Selectivity interaction (KinomeScan (DiscoverX)) EUB0000045b TEK
[5] = target: T4, Serine/threonine-protein kinase 3 (Homo sapiens) (UniProt Q13188); assay: Selectivity interaction (ActivX KiNativ screen (ex vivo kinase selectivity in human PBMCs)) EUB0001619a STK3; assay type: cell-based; details: PBMC, at 1 µM
T4 sequence (whole entry): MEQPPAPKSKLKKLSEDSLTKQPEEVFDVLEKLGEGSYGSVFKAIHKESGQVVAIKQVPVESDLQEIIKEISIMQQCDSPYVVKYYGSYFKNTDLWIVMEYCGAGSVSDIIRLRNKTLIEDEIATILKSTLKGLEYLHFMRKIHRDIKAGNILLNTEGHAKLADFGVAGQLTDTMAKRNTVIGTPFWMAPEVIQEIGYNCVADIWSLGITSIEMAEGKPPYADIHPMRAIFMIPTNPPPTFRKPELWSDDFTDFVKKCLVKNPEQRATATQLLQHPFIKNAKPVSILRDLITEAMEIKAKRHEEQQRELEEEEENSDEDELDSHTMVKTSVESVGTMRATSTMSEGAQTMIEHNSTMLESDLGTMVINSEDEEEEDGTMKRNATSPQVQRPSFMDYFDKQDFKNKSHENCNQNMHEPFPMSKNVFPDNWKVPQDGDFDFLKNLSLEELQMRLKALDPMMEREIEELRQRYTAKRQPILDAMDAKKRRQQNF

Sequence of Angiopoietin-1 receptor (Homo sapiens) (Q02763 whole entry): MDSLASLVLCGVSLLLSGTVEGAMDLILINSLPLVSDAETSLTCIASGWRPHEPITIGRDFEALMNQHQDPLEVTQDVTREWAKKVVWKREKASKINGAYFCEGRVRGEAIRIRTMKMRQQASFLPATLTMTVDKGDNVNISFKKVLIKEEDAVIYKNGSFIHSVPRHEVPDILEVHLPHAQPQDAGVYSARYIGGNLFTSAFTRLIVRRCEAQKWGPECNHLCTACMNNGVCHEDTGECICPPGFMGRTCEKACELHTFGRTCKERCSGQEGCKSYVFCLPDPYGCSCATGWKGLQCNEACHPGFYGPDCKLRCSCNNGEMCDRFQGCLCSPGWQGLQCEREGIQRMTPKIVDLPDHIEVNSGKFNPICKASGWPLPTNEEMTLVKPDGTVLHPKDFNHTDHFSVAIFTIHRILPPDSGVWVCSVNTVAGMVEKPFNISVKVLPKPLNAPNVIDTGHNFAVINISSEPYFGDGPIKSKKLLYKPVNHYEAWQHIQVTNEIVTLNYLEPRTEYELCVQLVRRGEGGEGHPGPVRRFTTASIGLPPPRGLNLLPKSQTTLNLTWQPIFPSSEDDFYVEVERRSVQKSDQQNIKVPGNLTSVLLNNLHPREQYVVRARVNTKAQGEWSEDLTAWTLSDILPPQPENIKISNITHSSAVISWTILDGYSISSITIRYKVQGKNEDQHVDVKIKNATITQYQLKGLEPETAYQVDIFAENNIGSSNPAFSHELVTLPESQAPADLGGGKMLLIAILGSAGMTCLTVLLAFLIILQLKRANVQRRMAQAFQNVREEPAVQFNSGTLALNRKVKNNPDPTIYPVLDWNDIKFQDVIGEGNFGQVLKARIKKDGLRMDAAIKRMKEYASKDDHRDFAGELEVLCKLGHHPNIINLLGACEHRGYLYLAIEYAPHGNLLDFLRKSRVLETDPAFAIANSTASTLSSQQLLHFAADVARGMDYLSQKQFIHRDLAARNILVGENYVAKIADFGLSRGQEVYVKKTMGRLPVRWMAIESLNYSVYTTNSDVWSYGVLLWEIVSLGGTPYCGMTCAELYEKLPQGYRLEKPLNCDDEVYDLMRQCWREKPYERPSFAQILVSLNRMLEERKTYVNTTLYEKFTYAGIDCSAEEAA

CCN(CC)CCCCNc1ncc2cc(-c3cc(OC)cc(OC)c3)c(NC(=O)NC(C)(C)C)nc2n1
% of control [1]: 100%

CCC(=O)N1CCN(c2ccc(-n3c(=O)ccc4cnc5ccc(-c6cnc7ccccc7c6)cc5c43)cc2C(F)(F)F)CC1
% of control [2]: 6.8%

CN(C)C/C=C/C(=O)Nc1ccc(C(=O)N2CCCC(Nc3ncc(Cl)c(-c4c[nH]c5ccccc45)n3)C2)cc1 (stereo unspecified)
% of control [3]: 58%

C=CC(=O)Nc1cc(-n2c(=O)ccc3cnc4ccc(-c5ccc(NS(C)(=O)=O)cc5)cc4c32)ccc1C
% of control ([4]; at 1 µM): 89% | % of control ([4]; at 10 µM): 99%

N#Cc1cccc(-c2c[nH]c3ncnc(N4CCOCC4)c23)c1
% of inhibition [5]: 69%
